Usually IC50 stands for the point on the concentration scale where inhibition reaches its midpoint. One may read the EC50 as the concentration giving half of the maximal effect. A lower EC50 goes with higher potency in that assay.

Experiment [1] addresses T1, CD73 (Homo sapiens (Human), UniProt P21589). The class given is biochemical. As to conditions: 1 mM NaH2PO4 in enzyme buffer, CD73 0.3 nM, AMP 15 uM.
Protocol: Compound serial dilutions were pre-spotted into Thermo Nunc assay plate. 50 uL CD73 enzyme buffer (CD73 purchased from R&D system=0.6 nM, 25 mM Tris, pH 7.4, 5 mM MgCl2, 1 mM NaH2PO4) was added into the assay plate and incubate for 15 mins. […] After incubation for 60 mins, the supernatant (20 uL) was transferred into 384-well NUNC plate pre-filled with 60 uL Quench buffer (80% organic and 20% water+0.1% FA) with internal standard. The plate was spun down at 4500 rpm for 20 mins, then 20 uL of supernatant was transferred to another Nunc plate prefilled with 80 uL of water. The samples were analyzed using Rapid fire.
Experiment [2] deals with T1, CD73. In words: MDA-MB-231 Cell Based CD73 Activity Assay (DMEM). The conditions noted are these: MDA-MB-231-GFP cells, DMEM medium with 10% human plasma, 200 uM AMP.

T1 sequence (P21589 27-574): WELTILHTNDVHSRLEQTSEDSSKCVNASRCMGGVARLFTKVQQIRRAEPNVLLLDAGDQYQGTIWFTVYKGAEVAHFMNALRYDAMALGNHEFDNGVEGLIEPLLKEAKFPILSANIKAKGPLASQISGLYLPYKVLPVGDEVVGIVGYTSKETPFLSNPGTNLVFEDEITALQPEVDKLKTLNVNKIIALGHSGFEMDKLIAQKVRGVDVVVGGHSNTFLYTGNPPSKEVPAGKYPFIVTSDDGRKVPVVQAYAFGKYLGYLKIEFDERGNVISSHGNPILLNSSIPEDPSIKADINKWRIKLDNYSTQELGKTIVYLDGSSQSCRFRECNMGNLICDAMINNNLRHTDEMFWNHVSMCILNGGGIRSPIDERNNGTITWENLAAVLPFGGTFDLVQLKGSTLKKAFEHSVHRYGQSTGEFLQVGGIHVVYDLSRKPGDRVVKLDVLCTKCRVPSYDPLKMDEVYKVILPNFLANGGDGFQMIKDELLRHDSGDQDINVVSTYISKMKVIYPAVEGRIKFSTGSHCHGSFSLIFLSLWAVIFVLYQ

On to `O=C(NC1(C(F)(F)F)CC1)O[C@H]1CN(c2cc(-c3c[nH]c(=O)[nH]c3=O)nn3c(F)cnc23)CC1(F)F` [Example 664, (S)-1-(6-(2,4-dioxo-1,2,3,4-tetrahydropyrimidin-5-yl)-3-fluoroimidazo[1,2-b]pyridazin-8-yl)-4,4-difluoropyrrolidin-3-yl (1-(trifluoromethyl)cyclopropyl)carbamate], for which, in experiment [1], it took 0.00092 µM to reach half-maximal inhibition (IC50). This compound showed a concentration giving a half-maximal response (EC50) in experiment [2] of 0.00021 µM.

For the compound `O=C(NC12CC(C(F)(F)F)(C1)C2)O[C@H]1CN(c2cc(-c3c[nH]c(=O)[nH]c3=O)nn3c(F)cnc23)CC1(F)F` [Example 665, (S)-1-(6-(2,4-dioxo-1,2,3,4-tetrahydropyrimidin-5-yl)-3-fluoroimidazo[1,2-b]pyridazin-8-yl)-4,4-difluoropyrrolidin-3-yl (3-(trifluoromethyl)bicyclo[1.1.1]pentan-1-yl)carbamate], the IC50 in experiment [1] was determined as 0.00146 µM. Further, the EC50 in experiment [2] worked out at 0.00279 µM.

In the case of `O=c1[nH]cc(-c2cc(N3C[C@H](Oc4cc(C(F)(F)F)cnn4)C(F)(F)C3)c3ncc(F)n3n2)c(=O)[nH]1` [Example 666, (S)-5-(8-(3,3-difluoro-4-((5-(trifluoromethyl)pyridazin-3-yl)oxy)pyrrolidin-1-yl)-3-fluoroimidazo[1,2-b]pyridazin-6-yl)pyrimidine-2,4(1H,3H)-dione], the half-inhibitory concentration (IC50) in experiment [1] is 0.0018 µM. Also, in experiment [2], a half-maximal effect (EC50) was put at 0.0028 µM.

In experiment [1], `CC(C)CNc1cc(-c2c[nH]c(=O)[nH]c2=O)nn2ccnc12` [Example 667, 5-(8-(isobutylamino)imidazo[1,2-b]pyridazin-6-yl)pyrimidine-2,4(1H,3H)-dione] returned an IC50 of 0.1 µM. In experiment [2], this compound showed a 50% effective concentration (EC50) of 0.414 µM.

Consider `CC(C)(C)CNc1cc(-c2c[nH]c(=O)[nH]c2=O)nn2ccnc12` [Example 668, 5-(8-(neopentylamino)imidazo[1,2-b]pyridazin-6-yl)pyrimidine-2,4(1H,3H)-dione], for which, in experiment [1], the IC50 was greater than 0.25 µM. This compound also registered a concentration giving a half-maximal response (EC50) in experiment [2] of 0.857 µM.

Compound `COCCNc1cc(-c2c[nH]c(=O)[nH]c2=O)nn2ccnc12` [Example 669, 5-(8-((2-methoxyethyl)amino)imidazo[1,2-b]pyridazin-6-yl)pyrimidine-2,4(1H,3H)-dione] displayed a half-inhibitory concentration (IC50) in experiment [1] greater than 0.25 µM. Further, in experiment [2], the midpoint of the response, the EC50, lay at 0.69 µM.

In experiment [1], `O=c1[nH]cc(-c2cc(NCC(F)F)c3nccn3n2)c(=O)[nH]1` [Example 670, 5-(8-((2,2-difluoroethyl)amino)imidazo[1,2-b]pyridazin-6-yl)pyrimidine-2,4(1H,3H)-dione] came in with a half-maximal inhibitory concentration (IC50) of 0.154 µM. In experiment [2], the response was half-maximal at 0.573 µM (EC50).

As to `COc1ccc(CN(CC(F)F)c2cc(-c3c[nH]c(=O)[nH]c3=O)nn3ccnc23)cc1` [Example 671, 5-(8-((2,2-difluoroethyl)(4-methoxybenzyl)amino)imidazo[1,2-b]pyridazin-6-yl)pyrimidine-2,4(1H,3H)-dione], in experiment [1], the IC50 is greater than 0.25 µM. In addition, in experiment [2], a half-maximal response (EC50) required 1.62 µM.

For the compound `O=c1[nH]cc(-c2cc(NCC(F)(F)F)c3nccn3n2)c(=O)[nH]1` [Example 672, 5-(8-((2,2,2-trifluoroethyl)amino)imidazo[1,2-b]pyridazin-6-yl)pyrimidine-2,4(1H,3H)-dione], the half-inhibitory concentration (IC50) in experiment [1] came out at 0.148 µM. In experiment [2], the 50% effective concentration (EC50) came out at 0.383 µM.

`O=c1[nH]cc(-c2cc(OCCc3ccccc3)c3nccn3n2)c(=O)[nH]1` [Example 673, 5-(8-phenethoxyimidazo[1,2-b]pyridazin-6-yl)pyrimidine-2,4(1H,3H)-dione] displayed an IC50 in experiment [1] of 0.00546 µM. The compound further showed an EC50 in experiment [2] of 0.0316 µM.

The compound `CC(COc1cc(-c2c[nH]c(=O)[nH]c2=O)nn2ccnc12)c1ccccc1` (stereo not drawn) [Example 674, 5-(8-(2-phenylpropoxy)imidazo[1,2-b]pyridazin-6-yl)pyrimidine-2,4(1H,3H)-dione] had a concentration for half-maximal inhibition (IC50) in experiment [1] of 0.0163 µM. In experiment [2], this compound displayed an EC50 of 0.0481 µM.

`O=c1[nH]cc(-c2cc(OCC(F)(F)F)c3nccn3n2)c(=O)[nH]1` [Example 675, 5-(8-(2,2,2-trifluoroethoxy)imidazo[1,2-b]pyridazin-6-yl)pyrimidine-2,4(1H,3H)-dione] returned an IC50 in experiment [1] of 0.0495 µM. A half-maximal effect in experiment [2] (EC50) was put at 0.0787 µM.

These data come from patent US20240043427A1 (Gilead Sciences, Inc., priority 2020, published 2024).
